Laboratory results as given in patent publication EP0714896A1, “INDOL DERIVATIVES USEFUL FOR THE TREATMENT OF MIGRAINE, COMPOSITION AND UTILIZATION” (VITA-INVEST, S.A., priority 1994, dated 1995).

System: isolated rabbit saphenous vein
Test: 5HT1-like agonist activity on the isolated rabbit saphenous vein preparation (contraction)
Type: cell-based
Conditions: pD2 = -log EC50 of contraction, after phenoxybenzamine 0.3 µM and pargyline 500 µM, 37°C; for EC50: Oryctolagus cuniculus
Description: 5HT1-like agonist activity of the synthesis products on the isolated rabbit saphenous vein preparation.
This study was conducted using the method described by Van Heuven-Nolsen (Van Heuven-Nolsen et al., Eur. J. Pharmacol. 191 (3); 375-382; 1990) and male New Zealand rabbits were used. The animals were sacrificed by exposure to excess CO₂. Thereafter the saphenous vein of each rear extremity was excised. 5 mm long segments were obtained from each vein. Each segment was placed, using appropriate supports, in an organ bath containing a Krebs-Henseleit solution aerated with carbogen and thermostatically controlled to 37°C. These conditions were held for 25 minutes, after which the preparation was subjected to a traction of 2 g at the same time as phenoxybenzamine (0.3 µM) and pargyline (500 µM) were added to the organ bath over 30 minutes. The phenoxybenzamine is an irreversible antagonist of the α-adrenoreceptors, whilst pargyline is a selective monoaminooxidase (MAO) inhibitor. At the end of these 30 minutes, successive washings were performed with Krebs solution every 7 minutes, for a further 30 minutes to remove the excess phenoxybenzamine. Thereafter, the preparation was subjected to an increasing contraction by the addition of cumulative doses of sumatriptan (10⁻⁹ at 3x10⁻⁵ M), followed by washing and allowing to rest for 30 minutes until the segment returns to its basal tension. At the end of this time, a further cumulative curve is plotted with the product to be studied. The pD2 (-log EC₅₀, the product concentration producing 50% of its maximum contraction) and the Emax (maximum contraction achieved) were calculated.

| EC50 | Molecule | RABBIT SAPHENOUS VEIN pD2 |
| --- | --- | --- |
|  | CNS(=O)(=O)Cc1ccc2[nH]cc(CCCNCCN(C)c3ncncc3OC)c2c1 [Example 59, C-[3-(3-{2-[5-methoxy-pyrimidin-4-yl)-methylaminolethylamino}-propyl)-1H-indol-5-yl]-N-methyl-methanesulfonamide.] | 6.64±0.24 |
| 0.282 µM | CNS(=O)(=O)Cc1ccc2[nH]cc(CCCN3CCN(c4ncncc4-c4ccccc4)CC3)c2c1 [Example 87, C-(3-{3-[4-(5-phenyl-pyrimidin-4-yl)-piperazin-1-yl]-propyl}-1H-indol-5-yl)-N-methylmethanesulfonamide] |  |
| 0.00724 µM | CNS(=O)(=O)Cc1ccc2[nH]cc(CCCN3CCN(c4ncnc(OC)c4OC)CC3)c2c1 [Example 51, C-(3-{3-[4-(5,6-dimethoxy-pyrimidin-4-yl)-piperazin-1-yl]-propyl}-1H-indol-5-yl)-N-methyl-methanesulfonamide] |  |
|  | C-(3-{3-[3-(5,6-dimethoxy-pyrimidin-4-yl)-piperazin-1-yl]-1-methyl-1H-indol-5-yl)-N-methyl-methanesulfonamide [Example 78] | 6.80±0.56 |
| 0.105 µM | CNc1ncnc(N2CCN(CCCc3c[nH]c4ccc(CS(=O)(=O)NC)cc34)CC2)c1OC [Example 64, C-(3-{3-[4-(6-methylamino-5-methoxy-pyrimidin-4-yl)-piperazin-1-yl]-propyl}-1H-indol-5-yl)-N-methyl-methanesulfonamide] |  |
| 0.724 µM | COc1cncnc1N1CCN(CC=Cc2c[nH]c3ccc(F)cc23)CC1 [Example 83, 5-fluoro-3-{3-[4-(5-methoxy-pyrimidin-4-yl)-piperazin-1-yl]-propenyl}-1H-indole] |  |
| 0.347 µM | CNS(=O)(=O)Cc1ccc2[nH]cc(CCN(C)C)c2c1 [SUMATRIPTAN, sumatriptan, reference compound] |  |
| 0.00138 µM | COc1ccc2[nH]cc(CCCN3CCN(c4ncnc(OC)c4OC)CC3)c2c1 [Example 80, 3-{3-[4-(5,6-dimethoxy-pyrimidin-4-yl)-piperazin-1-yl]-propyl}-5-methoxy-1H-indole] |  |
| 0.12 µM | CNS(=O)(=O)Cc1ccc2[nH]cc(CCCN(C)CCN(C)c3ncnc(OC)c3OC)c2c1 [Example 62, C-{3-[3-({2-[(5,6-dimethoxy-pyrimidin-4-yl)-methyl-amino]-ethyl}-methyl-amino)-propyl]-1H-indol-5-yl}-N-methyl-methanesulfonamide] |  |
| 0.049 µM | NCCc1c[nH]c2ccc(O)cc12 [SEROTONIN, reference compound] |  |
| 0.324 µM | COc1cnc(C)nc1N1CCN(CCCc2c[nH]c3ccc(F)cc23)CC1 [Example 70, 5-fluoro-3-{3-[4-(2-methyl-5-methoxy-pyrimidin-4-yl)-piperazin-1-yl]-propyl}-1H-indole] |  |
| 0.457 µM | CNS(=O)(=O)Cc1ccc2[nH]cc(CCCNC3CCN(c4ncnc(OC)c4OC)C3)c2c1 (stereo not shown) [Example 56, C-(3-{3-[1-(5,6-dimethoxy-pyrimidin-4-yl)-pyrrolidin-3-ylamino]-propyl}-1H-indol-5-yl)-N-methyl-methanesulfonamide] |  |

| Molecule | EC50 | RABBIT SAPHENOUS VEIN pD2 |
| --- | --- | --- |
| CNS(=O)(=O)Cc1ccc2[nH]cc(CCN3CCN(c4ncncc4OC)CC3)c2c1 [Example 85, C-(3-{2-[4-(5-methoxy-pyrimidin-4-yl)-piperazin-1-yl]-ethyl}-1H-indol-5-yl)-N-methyl-methanesulfonamide] | 2.63 µM |  |
